{"source": "patent US5374711A", "about": "“Chemical modification of 2\"-amino group in elsamicin a” (Bristol-Myers Squibb Company, priority 1993, dated 1994)", "key": {"leukemia P388": {"system": "leukemia P388", "conditions": "in vitro and in vivo; cited from earlier work"}, "[1]": {"system": "lymphocytic leukemia P388", "assay": "In vivo antitumor activity against P388 leukemia in mice (ip, Q1Dx3)", "set-up": "species or system mice (female CDF1)", "conditions": "for T/C % of MST / prolongation of life-span in the P388-bearing mice: Q1Dx3, ip; for times less active than the parent compound in terms of minimum effective doses (MED): P388, vs elsamicin A", "experimental": "(§1) Among the derivatives tested, in vivo antitumor activity of six derivatives showing relatively potent cytotoxicity was tested in the lymphocytic leukemia P388 and B16 melanoma systems. Female CDF1 (for P388) and male BDF1 (for B16) mice were inoculated by ip injection at 10^6 P388 cells and 0.5 ml of a 10% B16 brei per mouse, respectively (day 0). […] The percent increase of median survival time (MST) of treated animals over that of untreated control animals was determined and reported as T/C %. Compounds showing T/C % values of 125 or greater are considered to have significant antitumor activity. […] The others had no activity at the doses tested. Derivatives 4d4e, and 5 when tested in the B16 system, also gave 10- 30 times less antitumor activity than elsamicin A in terms of MED (Table 5)."}, "lymphoid leukemia L1210": {"system": "lymphoid leukemia L1210", "conditions": "in vitro and in vivo; cited from earlier work"}, "[2]": {"system": "murine melanoma B16-F10 cells", "assay": "cells", "conditions": "Mus musculus, B16-F10, 72 h, read-out: Cytotoxicity IC50", "quoted_text": "For in vitro cytotoxicity experiment, murine melanoma B16-F10 cells were grown and maintained in Eagle's minimum essential medium (Nissui), which contains kanamycin (60 μg/ml), supplemented with heat-inactivated fetal calf serum (10%) and nonessential amino acids (0.6%) at 37° C. under a humidified atmosphere in a 5% CO2 incubator, Exponentially growing B16-F10 cells were harvested, counted and suspended in the culture medium at the concentration of 2.0×10^4 cells/ml. The cell suspension (180 μl) was planted into wells of a 96-well microtiter plate and incubated for 24 hours. Test compounds (20 μl) were added to the wells and the plates were further incubated for 72 hours. The cytotoxic activity was colorimetrically determined at 540 nm after staining viable cells with neutral red solution."}, "B16 melanoma": {"system": "B16 melanoma", "assay": "In vivo antitumor activity against B16 melanoma in mice (ip, Q4Dx3)", "set-up": "species or system mice (male BDF1)", "conditions": "for times less antitumor activity than elsamicin A in terms of MED: B16, vs elsamicin A", "experimental": "as §1"}, "[3]": {"system": "aerobic gram-positive bacteria", "conditions": "cited from earlier work"}, "melanotic melanoma B16": {"system": "melanotic melanoma B16", "conditions": "in vitro and in vivo; cited from earlier work"}, "anaerobic bacteria": {"system": "anaerobic bacteria", "conditions": "cited from earlier work"}}, "note": "Counter-ions that a name gives are not always drawn.", "data": [{"compound": "CO[C@@H]1[C@@H](N)[C@@H](O[C@H]2[C@H](Oc3cccc4c(O)c5c(=O)oc6ccc(C)c7c(=O)oc(c34)c5c67)O[C@H](C)[C@H](O)[C@]2(C)O)O[C@H](C)[C@@H]1O", "note": "[Compound 1, Elsamicin A]", "values": [{"measurement": "activity against murine tumor cells", "setting": "leukemia P388", "value": "exerts activity"}, {"measurement": "T/C % of MST", "setting": "[1]; 0.1 mg/kg/day", "value": 120, "unit": "%"}, {"measurement": "T/C % of MST", "setting": "[1]; 0.3 mg/kg/day", "value": 137, "unit": "%"}, {"measurement": "T/C % of MST", "setting": "[1]; 1 mg/kg/day", "value": 150, "unit": "%"}, {"measurement": "T/C % of MST", "setting": "[1]; 3 mg/kg/day", "value": 170, "unit": "%"}, {"measurement": "T/C % of MST", "setting": "[1]; 10 mg/kg/day", "value": 205, "unit": "%"}, {"measurement": "T/C % of MST", "setting": "[1]; 20 mg/kg/day", "value": "Tox"}, {"measurement": "activity against murine tumor cells", "setting": "lymphoid leukemia L1210", "value": "exerts activity"}, {"measurement": "IC50", "setting": "[2]", "value": 0.07, "unit": "mg/L"}, {"measurement": "T/C % of MST", "setting": "B16 melanoma; 0.1 mg/kg/day, Q4Dx3 ip", "value": 115, "unit": "%"}, {"measurement": "T/C % of MST", "setting": "B16 melanoma; 0.3 mg/kg/day, Q4Dx3 ip", "value": 128, "unit": "%"}, {"measurement": "T/C % of MST", "setting": "B16 melanoma; 1 mg/kg/day, Q4Dx3 ip", "value": 168, "unit": "%"}, {"measurement": "T/C % of MST", "setting": "B16 melanoma; 3 mg/kg/day, Q4Dx3 ip", "value": 208, "unit": "%"}, {"measurement": "T/C % of MST", "setting": "B16 melanoma; 10 mg/kg/day, Q4Dx3 ip", "value": "≥ 282", "unit": "%"}, {"measurement": "No. of survivors/tested on day 50", "setting": "B16 melanoma; 10 mg/kg/day, Q4Dx3 ip, day 50", "value": "4/8"}, {"measurement": "antibacterial activity", "setting": "[3]", "value": "exhibits antibacterial activity"}, {"measurement": "activity against murine tumor cells", "setting": "melanotic melanoma B16", "value": "exerts activity"}, {"measurement": "antibacterial activity", "setting": "anaerobic bacteria", "value": "exhibits antibacterial activity"}]}, {"compound": "CO[C@H]1[C@@H](O)[C@@H](C)O[C@H](O[C@H]2[C@H](Oc3cccc4c(O)c5c(=O)oc6ccc(C)c7c(=O)oc(c34)c5c67)O[C@H](C)[C@H](O)[C@]2(C)O)[C@@H]1NC(C)C", "note": "[Compound 4a, 2\"-N-Isopropylelsamicin A]", "values": [{"measurement": "T/C % of MST", "setting": "[1]; 1 mg/kg/day", "value": 110, "unit": "%"}, {"measurement": "T/C % of MST", "setting": "[1]; 3 mg/kg/day", "value": 120, "unit": "%"}, {"measurement": "T/C % of MST", "setting": "[1]; 10 mg/kg/day", "value": 140, "unit": "%"}, {"measurement": "times less active than the parent compound in terms of minimum effective doses (MED)", "setting": "[1]", "value": "10-30 times"}, {"measurement": "prolongation of life-span in the P388-bearing mice", "setting": "[1]", "value": "quite limited prolongation of life-span"}]}, {"compound": "CN[C@H]1[C@@H](O[C@H]2[C@H](Oc3cccc4c(O)c5c(=O)oc6ccc(C)c7c(=O)oc(c34)c5c67)O[C@H](C)[C@H](O)[C@]2(C)O)O[C@H](C)[C@H](O)[C@@H]1OC", "note": "[Compound 4d, 2\"-N-Methylelsamicin A]", "values": [{"measurement": "T/C % of MST", "setting": "[1]; 0.1 mg/kg/day", "value": 100, "unit": "%"}, {"measurement": "T/C % of MST", "setting": "[1]; 0.3 mg/kg/day", "value": 100, "unit": "%"}, {"measurement": "T/C % of MST", "setting": "[1]; 1 mg/kg/day", "value": 120, "unit": "%"}, {"measurement": "T/C % of MST", "setting": "[1]; 3 mg/kg/day", "value": 130, "unit": "%"}, {"measurement": "T/C % of MST", "setting": "[1]; 10 mg/kg/day", "value": 145, "unit": "%"}, {"measurement": "times less active than the parent compound in terms of minimum effective doses (MED)", "setting": "[1]", "value": "10-30 times"}, {"measurement": "prolongation of life-span in the P388-bearing mice", "setting": "[1]", "value": "quite limited prolongation of life-span"}, {"measurement": "T/C % of MST", "setting": "B16 melanoma; 0.3 mg/kg/day, Q4Dx3 ip", "value": 106, "unit": "%"}, {"measurement": "T/C % of MST", "setting": "B16 melanoma; 1 mg/kg/day, Q4Dx3 ip", "value": 100, "unit": "%"}, {"measurement": "T/C % of MST", "setting": "B16 melanoma; 3 mg/kg/day, Q4Dx3 ip", "value": 115, "unit": "%"}, {"measurement": "T/C % of MST", "setting": "B16 melanoma; 10 mg/kg/day, Q4Dx3 ip", "value": 135, "unit": "%"}, {"measurement": "times less antitumor activity than elsamicin A in terms of MED", "setting": "B16 melanoma", "value": "10- 30 times"}]}, {"compound": "CO[C@H]1[C@@H](O)[C@@H](C)O[C@H](O[C@H]2[C@H](Oc3cccc4c(O)c5c(=O)oc6ccc(C)c7c(=O)oc(c34)c5c67)O[C@H](C)[C@H](O)[C@]2(C)O)[C@@H]1NC=N", "note": "[Compound 5, 2\"-N-Formimidoylelsamicin A hydrochloride]", "values": [{"measurement": "T/C % of MST", "setting": "[1]; 0.1 mg/kg/day", "value": 100, "unit": "%"}, {"measurement": "T/C % of MST", "setting": "[1]; 0.3 mg/kg/day", "value": 100, "unit": "%"}, {"measurement": "T/C % of MST", "setting": "[1]; 1 mg/kg/day", "value": 120, "unit": "%"}, {"measurement": "T/C % of MST", "setting": "[1]; 3 mg/kg/day", "value": 130, "unit": "%"}, {"measurement": "T/C % of MST", "setting": "[1]; 10 mg/kg/day", "value": 140, "unit": "%"}, {"measurement": "times less active than the parent compound in terms of minimum effective doses (MED)", "setting": "[1]", "value": "10-30 times"}, {"measurement": "prolongation of life-span in the P388-bearing mice", "setting": "[1]", "value": "quite limited prolongation of life-span"}, {"measurement": "T/C % of MST", "setting": "B16 melanoma; 0.3 mg/kg/day, Q4Dx3 ip", "value": 100, "unit": "%"}, {"measurement": "T/C % of MST", "setting": "B16 melanoma; 1 mg/kg/day, Q4Dx3 ip", "value": 103, "unit": "%"}, {"measurement": "T/C % of MST", "setting": "B16 melanoma; 3 mg/kg/day, Q4Dx3 ip", "value": 126, "unit": "%"}, {"measurement": "T/C % of MST", "setting": "B16 melanoma; 10 mg/kg/day, Q4Dx3 ip", "value": 150, "unit": "%"}, {"measurement": "times less antitumor activity than elsamicin A in terms of MED", "setting": "B16 melanoma", "value": "10- 30 times"}]}, {"compound": "CO[C@H]1[C@@H](O)[C@@H](C)O[C@H](O[C@H]2[C@H](Oc3cccc4c(O)c5c(=O)oc6ccc(C)c7c(=O)oc(c34)c5c67)O[C@H](C)[C@H](O)[C@]2(C)O)[C@@H]1NC(=O)CN", "note": "[Compound 3d, 2\"-N-Glycylelsamicin A]", "values": [{"measurement": "T/C % of MST", "setting": "[1]; 1 mg/kg/day", "value": 95, "unit": "%"}, {"measurement": "T/C % of MST", "setting": "[1]; 3 mg/kg/day", "value": 110, "unit": "%"}, {"measurement": "T/C % of MST", "setting": "[1]; 10 mg/kg/day", "value": 110, "unit": "%"}]}, {"compound": "CO[C@H]1[C@@H](O)[C@@H](C)O[C@H](O[C@H]2[C@H](Oc3cccc4c(O)c5c(=O)oc6ccc(C)c7c(=O)oc(c34)c5c67)O[C@H](C)[C@H](O)[C@]2(C)O)[C@@H]1N1CCOCC1", "note": "[Compound 4f, 2\"-Deamino-2\"-morpholinoelsamicin A]", "values": [{"measurement": "T/C % of MST", "setting": "[1]; 1 mg/kg/day", "value": 100, "unit": "%"}, {"measurement": "T/C % of MST", "setting": "[1]; 3 mg/kg/day", "value": 105, "unit": "%"}, {"measurement": "T/C % of MST", "setting": "[1]; 10 mg/kg/day", "value": 100, "unit": "%"}]}, {"compound": "CO[C@H]1[C@@H](O)[C@@H](C)O[C@H](O[C@H]2[C@H](Oc3cccc4c(O)c5c(=O)oc6ccc(C)c7c(=O)oc(c34)c5c67)O[C@H](C)[C@H](O)[C@]2(C)O)[C@@H]1N(C)C", "note": "[Compound 4e, 2\"-N,N-Dimethylelsamicin A]", "values": [{"measurement": "T/C % of MST", "setting": "[1]; 1 mg/kg/day", "value": 110, "unit": "%"}, {"measurement": "T/C % of MST", "setting": "[1]; 3 mg/kg/day", "value": 130, "unit": "%"}, {"measurement": "T/C % of MST", "setting": "[1]; 10 mg/kg/day", "value": 140, "unit": "%"}, {"measurement": "times less active than the parent compound in terms of minimum effective doses (MED)", "setting": "[1]", "value": "10-30 times"}, {"measurement": "prolongation of life-span in the P388-bearing mice", "setting": "[1]", "value": "quite limited prolongation of life-span"}, {"measurement": "T/C % of MST", "setting": "B16 melanoma; 1 mg/kg/day, Q4Dx3 ip", "value": 103, "unit": "%"}, {"measurement": "T/C % of MST", "setting": "B16 melanoma; 3 mg/kg/day, Q4Dx3 ip", "value": 109, "unit": "%"}, {"measurement": "T/C % of MST", "setting": "B16 melanoma; 10 mg/kg/day, Q4Dx3 ip", "value": 132, "unit": "%"}, {"measurement": "times less antitumor activity than elsamicin A in terms of MED", "setting": "B16 melanoma", "value": "10- 30 times"}]}]}
